Experiment [1] addresses T1, human mGlu5a receptor (Homo sapiens (Human), UniProt P41594). Nature of the experiment: Intracellular Ca2+ mobilization assay (mGlu5 PAM assay). Format: cell-based. Particulars: for EC50 (nM) mGlu5 PAM assay / mGlu5 PAM EC50 [nM]: HEK-293 cells with human mGlu5a, L-glutamate at EC20; for Activity profile: PAM = positive allosteric modulator, NAM = negative allosteric modulator; for Efficacy [%]: maximal response in % of maximal stimulatory effect of saturating L-glutamate. As for the experimental part: A monoclonal HEK-293 cell line stably transfected with a cDNA encoding for the human mGlu5a receptor was generated; for the work with mGlu5 Positive Allosteric Modulators (PAMs), a cell line with low receptor expression levels and low constitutive receptor activity was selected to allow the differentiation of agonistic versus PAM activity. Cells were cultured according to standard protocols (Freshney, 2000) in Dulbecco's Modified Eagle Medium with high glucose supplemented with 1 mM glutamine, 10% (vol/vol) heat-inactivated bovine calf serum, Penicillin/Streptomycin, 50 μg/ml hygromycin and 15 μg/ml blasticidin (all cell culture reagents and antibiotics from Invitrogen, Basel, Switzerland).
About 24 hrs before an experiment, 5×10^4 cells/well were seeded in poly-D-lysine coated, black/clear-bottomed 96-well plates. The cells were loaded with 2.5 μM Fluo-4AM in loading buffer (1×HBSS, 20 mM HEPES) for 1 hr at 37° C. and washed five times with loading buffer. The cells were transferred into a Functional Drug Screening System 7000 (Hamamatsu, Paris, France), and 11 half logarithmic serial dilutions of test compound at 37° C. were added and the cells were incubated for 10-30 min. with on-line recording of fluorescence. Following this pre-incubation step, the agonist L-glutamate was added to the cells at a concentration corresponding to EC20 (typically around 80 μM) with on-line recording of fluorescence; in order to account for day-to-day variations in the responsiveness of cells, the EC20 of glutamate was determined immediately ahead of each experiment by recording of a full dose-response curve of glutamate.
Responses were measured as peak increase in fluorescence minus basal (i.e. fluorescence without addition of L-glutamate), normalized to the maximal stimulatory effect obtained with saturating concentrations of L-glutamate. Graphs were plotted with the % maximal stimulatory using XLfit, a curve fitting program that iteratively plots the data using Levenburg Marquardt algorithm. The single site competition analysis equation used was y=A+((B−A)/(1+((x/C)D))), where y is the % maximal stimulatory effect, A is the minimum y, B is the maximum y, C is the EC50, x is the log 10 of the concentration of the competing compound and D is the slope of the curve (the Hill Coefficient). From these curves the EC50 (concentration at which half maximal stimulation was achieved), the Hill coefficient as well as the maximal response in % of the maximal stimulatory effect obtained with saturating concentrations of L-glutamate were calculated.
A depression of the signal observed after addition of the EC20 concentration of L-glutamate was indicative of an inhibitory activity of the test compound.
In general terms: A change in cytosolic calcium serves as a functional read-out for many receptors and channels.

The target in experiment [2] is T1, human mGlu5a receptor. Nature of the experiment: MPEP binding assay. The conditions noted are these: [3H]MPEP 2 nM, 1 h at 4° C., EBNA cell membranes. As for the experimental part: For binding experiments, cDNA encoding human mGlu 5a receptor was transiently transfected into EBNA cells using a procedure described by Schlaeger and Christensen [Cytotechnology 15:1-13 (1998)]. Cell membrane homogenates were stored at −80° C. until the day of assay where upon they were thawed and resuspended and polytronised in 15 mM Tris-HCl, 120 mM NaCl, 100 mM KCl, 25 mM CaCl2, 25 mM MgCl2 binding buffer at pH 7.4 to a final assay concentration of 20 μg protein/well.
Saturation isotherms were determined by addition of twelve [^3H]MPEP concentrations (0.04-100 nM) to these membranes (in a total volume of 200 μl) for 1 h at 4° C. Competition experiments were performed with a fixed concentration of [^3H]MPEP (2 nM) and IC50 values of test compounds evaluated using 11 concentrations (0.3-10,000 nM). Incubations were performed for 1 h at 4° C.
At the end of the incubation, membranes were filtered onto unifilter (96-well white microplate with bonded GF/C filter preincubated 1 h in 0.1% PEI in wash buffer, Packard BioScience, Meriden, Conn.) with a Filtermate 96 harvester (Packard BioScience) and washed 3 times with cold 50 mM Tris-HCl, pH 7.4 buffer. Nonspecific binding was measured in the presence of 10 μM MPEP. The radioactivity on the filter was counted (3 min) on a Packard Top-count microplate scintillation counter with quenching correction after addition of 45 μl of microscint 40 (Canberra Packard S. A., Zürich, Switzerland) and shaking for 20 min.

T1 sequence (P41594 other isoform, or with tags, fused parts or gaps): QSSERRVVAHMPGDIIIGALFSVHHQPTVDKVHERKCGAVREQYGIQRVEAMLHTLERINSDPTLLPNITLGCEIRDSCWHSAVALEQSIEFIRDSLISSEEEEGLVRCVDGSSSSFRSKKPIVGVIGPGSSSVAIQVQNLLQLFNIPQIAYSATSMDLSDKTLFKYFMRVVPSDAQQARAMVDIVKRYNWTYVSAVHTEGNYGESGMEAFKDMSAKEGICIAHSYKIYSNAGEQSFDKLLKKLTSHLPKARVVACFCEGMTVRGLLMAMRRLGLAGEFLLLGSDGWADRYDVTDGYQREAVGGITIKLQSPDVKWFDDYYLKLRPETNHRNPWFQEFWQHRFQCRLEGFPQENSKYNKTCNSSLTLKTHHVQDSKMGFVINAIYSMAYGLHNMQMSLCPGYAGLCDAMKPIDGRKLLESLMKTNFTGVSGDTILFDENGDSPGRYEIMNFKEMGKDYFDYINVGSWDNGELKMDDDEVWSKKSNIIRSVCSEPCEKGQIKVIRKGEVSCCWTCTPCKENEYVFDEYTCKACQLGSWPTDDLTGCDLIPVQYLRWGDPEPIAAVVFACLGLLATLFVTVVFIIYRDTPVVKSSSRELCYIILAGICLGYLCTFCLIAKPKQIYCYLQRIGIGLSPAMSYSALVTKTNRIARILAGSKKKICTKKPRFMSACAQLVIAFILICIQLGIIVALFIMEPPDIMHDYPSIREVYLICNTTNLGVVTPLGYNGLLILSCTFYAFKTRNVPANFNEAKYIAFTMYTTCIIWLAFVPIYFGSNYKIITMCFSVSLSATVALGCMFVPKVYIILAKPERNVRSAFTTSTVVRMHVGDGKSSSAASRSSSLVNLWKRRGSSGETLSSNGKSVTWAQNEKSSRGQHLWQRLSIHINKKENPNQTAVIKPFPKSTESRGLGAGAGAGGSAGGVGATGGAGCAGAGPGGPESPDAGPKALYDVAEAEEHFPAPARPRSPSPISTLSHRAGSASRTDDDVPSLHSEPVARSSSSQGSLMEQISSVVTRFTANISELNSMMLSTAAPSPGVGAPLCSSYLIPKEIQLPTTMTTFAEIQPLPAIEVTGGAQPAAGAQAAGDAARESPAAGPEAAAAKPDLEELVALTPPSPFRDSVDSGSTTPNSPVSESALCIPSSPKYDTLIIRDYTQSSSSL

Broadly, the Ki is the dissociation constant of the complex between target and ligand, obtained from inhibition or displacement. As for `CC1(C)COCCN1C(=O)c1ccc(C#Cc2cccc(Cl)c2)cn1` [Example 3, (3,3-Dimethyl-morpholin-4-yl)-[5-(3-chloro-phenylethynyl)-pyridin-2-yl]-methanone], at human mGlu5a receptor [1], the “EC50 (nM) mGlu5 PAM assay” value is “inactive” and the Activity profile entry is listed as “NAM”. Further, the Ki at human mGlu5a receptor [2] was determined as 23 nM. `O=C(c1ccc(C#Cc2cccc(Cl)c2)cn1)N1CCOCC1` [drawing 6]: on human mGlu5a receptor [1], the “mGlu5 PAM EC50 [nM]” value was “inactive”.

As to `CC1(C)COCCN1C(=O)c1ccc(C#Cc2cccc(F)c2)cn1` [drawing 5], the “mGlu5 PAM EC50 [nM]” value at human mGlu5a receptor [1] was “inactive”. In the case of `CC1(C)COCCN1C(=O)c1ccc(C#Cc2cccc(F)c2)cn1` [Example 1, (3,3-Dimethyl-morpholin-4-yl)-[5-(3-fluoro-phenylethynyl)-pyridin-2-yl]-methanone], at human mGlu5a receptor [1], the “EC50 (nM) mGlu5 PAM assay” value is “inactive” and the Activity profile entry is recorded as “NAM”. Also, the Ki at human mGlu5a receptor [2] came to 72 nM. For `CC1(C)COCCN1C(=O)c1ncc(C#Cc2cccc(Cl)c2)cn1` [drawing 8], the “mGlu5 PAM EC50 [nM]” value at human mGlu5a receptor [1] was “inactive”. Consider `CC1(C)COCCN1C(=O)c1ccc(C#Cc2cccc(Cl)c2)cn1` [drawing 7], for which the “mGlu5 PAM EC50 [nM]” value on human mGlu5a receptor [1] was “inactive”. `CC1(C)CN(C(=O)c2ccc(C#Cc3cccc(F)c3)cn2)CCO1` [drawing 3]: at human mGlu5a receptor [1], the “Efficacy [%]” value is on record as 57%. Consider `O=C(c1ccc(C#Cc2cccc(Cl)c2)cn1)N1CCOCC1` [Example 2, [5-(3-Chloro-phenylethynyl)-pyridin-2-yl-morpholin-4-yl]-methanone], for which, at human mGlu5a receptor [1], the “EC50 (nM) mGlu5 PAM assay” value is “inactive”. `CC1(C)CN(C(=O)c2ccc(C#Cc3cccc(F)c3)cn2)CCO1` [Ref. 1 Ex. 35, reference compound]: at human mGlu5a receptor [1], the Activity profile entry was “PAM”. For the same compound, the Ki on human mGlu5a receptor [2] came out at 201 nM. For `CC1(C)CCCN(C(=O)c2ncc(C#Cc3ccccc3)cn2)C1` [Ref. 1 Ex. 46, reference compound], in that order: “PAM” and 315 nM. Turning to `CC1(C)CCCN(C(=O)c2ncc(C#Cc3ccccc3)cn2)C1` [drawing 4], the “Efficacy [%]” value at human mGlu5a receptor [1] was 59%. In the case of `CC1(C)COCCN1C(=O)c1ncc(C#Cc2cccc(Cl)c2)cn1` [Example 4, (3,3-Dimethyl-morpholin-4-yl)-[5-(3-chloro-phenylethynyl)-pyrimidin-2-yl]-methanone], at human mGlu5a receptor [1], the “EC50 (nM) mGlu5 PAM assay” value was “inactive” and the Activity profile entry is “NAM”. On human mGlu5a receptor [2], the inhibition constant Ki worked out at 67 nM.

The values are drawn from patent US9227959B2, “Ethynyl derivatives” (Hoffmann-La Roche Inc., priority 2012, dated 2016).
